Assay in all cases: NCI tumour cell line growth inhibition, 48 h
Test [1] concerns MALME-3M melanoma.
The test system of test [2] is NCI-H226 lung.
In test [3] the test system is SK-MEL-5 melanoma.
The subject of test [4] is SK-MEL-2 melanoma.
For test [5], the system named is IGROV1 ovarian.
Test [6] concerns CCRF-CEM leukemia.
Test [7] has as its system M14 melanoma.
For test [8], the system named is UACC-257 melanoma.
Test [9] has as its system HOP-62 NSCLC.
For test [10], the system named is K-562 leukemia.
In test [11] the test system is HCT-116 colon.
Test [12] has as its system SF-539 CNS.
Test [13] deals with M19-MEL melanoma.
The test system of test [14] is CAKI-1 renal.
Test [15] has as its system OVCAR-5 ovarian.
Test [16] has as its system SK-OV-3 ovarian.
Test [17] has as its system KM12 colon.
In test [18] the test system is DU-145 prostate.
In test [19] the test system is MDA-N.
For test [20], the system named is PC-3 prostate.

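Growth conditions: 96-well plates. Treatment: test compound, 48 hours, 5 concentrations. Analysis: linear interpolation between bracketing concentrations; unreached endpoints set to highest concentration. TGI is the concentration that stops growth completely.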

With `CCOC(=O)C1=C(C)N(c2ccc(C)cc2)C2=C(C(=O)N(c3ccccc3)C2c2ccccc2)C1c1ccccc1` (stereo not drawn), the TGI in test [1], in test [2], in test [3], in test [4], in test [5] and in [6] was over 25 µM each time. Also, the TGI in test [7], in test [8], in test [9], in test [10], in test [11] and in [12] was over 25 µM in each case. This compound yielded a TGI in test [13] of over 25 µM.

For `CN1CCC(CN2c3ccccc3Sc3ccccc32)CC1`, the TGI in test [2] came out at 28.8 µM; in test [3], 18.5 µM; in test [4], 31 µM; in [5], 30.4 µM; in [6], 35.9 µM; in test [14] it was 18 µM. Besides, the TGI in [7] was 26 µM; in test [15] it was 33.5 µM; in test [8], 27.8 µM; in test [16], 30.2 µM; in [17] it was 29.6 µM; in test [9], 32.2 µM. The TGI in [10] was found to be 32.3 µM; in test [11], 25.2 µM; in test [12], 28.5 µM; in test [13] it was 26.4 µM.

As to `CCn1cc(C(=O)O)c(=O)c2cc3c(cc21)S(=O)(=O)CC3`, the TGI in test [1], in [2], in test [3], in [4], in test [5] and in test [6] was over 100 µM each time. The TGI in test [14], in test [7], in [15], in [18], in test [8] and in test [16] was over 100 µM in each case. Besides, the TGI in [17], in test [19], in [9], in test [20], in test [10] and in test [11] was over 100 µM in each case. The compound also had a TGI in [12] of over 100 µM.

Take `CCOC(=O)NC(NC1=NCCS1)(C(=O)OCC)C(F)(F)F` (stereo not drawn): the TGI in test [1], in test [2], in [3], in test [4], in test [5] and in test [6] was over 100 µM each time. Besides, the TGI in test [14], in test [7], in [15], in [18], in [8] and in test [16] was over 100 µM each time. Further, the TGI in test [17], in test [19], in test [9], in test [20], in test [10] and in [11] was over 100 µM in each case. The same compound showed a TGI in test [12] of over 100 µM.

For the compound `NCCCNC1(c2cc3ccccc3s2)CCCCC1`, the TGI was 3.65 µM in test [1]; 33.3 µM in [2]; 3.31 µM in test [3]; 4.2 µM in [4]; 24.3 µM in test [5]; 13 µM in test [6]. The TGI came to 23 µM in test [14]; 3.51 µM in test [7]; 26.3 µM in test [15]; 24.8 µM in test [18]; 3.23 µM in test [8]; 28.6 µM in [16]. In addition, the TGI amounted to 14.7 µM in test [17]; 3.56 µM in test [19]; 27.8 µM in [9]; 21 µM in test [20]; 5.38 µM in test [10]; 4.91 µM in test [11]. Also, in [12], the TGI was 4.23 µM.

In the case of `CC1OC2(CC(OCc3ccccc3)C1OCc1ccccc1)OCCO2` (stereo not drawn), the TGI in test [1], in [2], in test [3], in [4], in test [5] and in test [6] was over 100 µM each time. The TGI in [14], in test [7], in test [15], in test [18], in test [8] and in [16] was over 100 µM each time. The TGI in test [17], in [19], in [9], in [20], in [10] and in test [11] was over 100 µM throughout. The TGI in test [12] was over 100 µM.

With `Cc1cc(C)c2c(n1)S(=O)(=O)N(CCCN1CCN(c3cccc(C(F)(F)F)c3)CC1)c1c-2nn(C)c1C`, the TGI in test [1], in test [2], in test [3], in [4], in test [5] and in test [6] was over 100 µM each time. The TGI in test [14], in [7], in [15], in [18], in test [8] and in test [16] was over 100 µM throughout. The TGI in [17], in test [19], in test [9], in test [20], in [10] and in test [11] was over 100 µM each time. Besides, the TGI in test [12] is over 100 µM.

As for `CCOC(=O)C(Cl)(NC(=O)c1c(F)c(F)c(F)c(F)c1F)C(F)(F)F` (stereo not drawn), the TGI in [1], in test [2], in test [3], in [4], in [5] and in test [6] was over 100 µM each time. Moreover, the TGI in test [14] is 36.4 µM; in test [7] it was over 100 µM; in [15] it was over 100 µM; in test [18], over 100 µM; in [8] it was over 100 µM; in test [16] it was over 100 µM. The TGI in test [17], in test [19], in test [9], in test [20], in [10] and in [11] was over 100 µM in each case. This compound also had a TGI in test [12] of over 100 µM.

The record behind these values is PubChem BioAssay (NCI).
